# Data: paper PMC7948796, “Mammalian-like type II glutaminyl cyclases in Porphyromonas gingivalis and other oral pathogenic bacteria as targets for treatment of periodontitis” (The Journal of Biological Chemistry, 2021)
# “Also recorded” adds a separate entry of the source.
# Key:
# [1] = molecular target: HsQC (Homo sapiens, UniProt Q16769); assay: QC inhibition assay with fluorogenic substrate H-Gln-AMC (Ki); assay type: biochemical; details: read-out: Ki value for HsQC
# [2] = tested on: Porpyhromonas gingivalis ATCC 33277; assay: MIC, micro-broth dilution; assay type: cell-based, Porphyromonas gingivalis
# Protocol: (§1) The micro-broth dilution technique was used to determine MICs. After subcultivation of bacterial strains and checking of purity, a defined inoculum was added to Wilkins–Chalgren broth (Oxoid) supplemented with 10 μg/ml β-NAD (Sigma-Aldrich) containing the inhibitor. A twofold dilution series was made, starting from 2 mM (final concentration) of the inhibitor. The growth control contained 10% of the inhibitor dissolvent at 2 mM (0.01% DMSO in a buffer with 50 mM TRIS, pH 8, and 50 mM NaCl). After an incubation period of 42 h (18 h for the aerobic S. gordonii), the growth of microbes was analyzed by visual analysis of the turbidity. MIC represents the lowest concentration without visible turbidity. All experiments were made using independent replicates.
# [3] = tested on: Porpyhromonas gingivalis J374–1 (clinical isolate); assay: MIC, micro-broth dilution; assay type: cell-based, Porphyromonas gingivalis
# Protocol: as §1
# [4] = tested on: Porpyhromonas gingivalis M5-1-2 (clinical isolate); assay: MIC, micro-broth dilution; assay type: cell-based, Porphyromonas gingivalis
# Protocol: as §1
# [5] = tested on: Fusobacterium nucleatum ATCC 25586; assay: MIC, micro-broth dilution; assay type: cell-based
# Protocol: as §1
# [6] = tested on: Prevotella intermedia ATCC 25611; assay: MIC, micro-broth dilution; assay type: cell-based
# Protocol: as §1
# [7] = tested on: Streptococcus gordonii ATCC 10558; assay: MIC, micro-broth dilution; assay type: cell-based
# Protocol: as §1
# [8] = tested on: Tannerella forsythia ATCC 43037; assay: MIC, micro-broth dilution; assay type: cell-based
# Protocol: as §1
# [9] = tested on: P. gingivalis ATCC 33277; assay: Growth curves, OD at 600 nm; assay type: cell-based, Porphyromonas gingivalis; details: laboratory strain ATCC 33277, Fig. 6A
# Protocol: (§2) In addition, we monitored the growth of two P. gingivalis strains ([…] and J374-1) by measuring the OD at 600 nm at different time points (it was not possible to make continuous measurements due to the anaerobic growth conditions of P. gingivalis), with the OD600 being recorded at 0 h, 16 h, 20 h, 24 h, and 42 h.
# [10] = tested on: P. gingivalis J374-1; assay: Growth curves, OD at 600 nm; assay type: cell-based, Porphyromonas gingivalis; details: clinical isolate J374-1, Fig. 6B
# Protocol: as §2
# [11] = molecular target: PgQC (Porphyromonas gingivalis, UniProt Q7MT37); assay: QC inhibition assay with fluorogenic substrate H-Gln-AMC (Ki); assay type: biochemical; design: His-tag (pET28a, thrombin-cleavable) (N, cleaved yes); made in house; host or cells: E. coli Rosetta(DE3)pLysS; details: Ki value for PgQC
# Protocol: Inhibitory constants were determined using concentrations of H-Gln-AMC varying from 1/4 KM to 2 KM and a final concentration of bacterial QC in a range between 25 nM and 50 nM. Progress curves were fitted to the general equation for competitive inhibition.
# Chain of PgQC (Q7MT37 entry or part of it): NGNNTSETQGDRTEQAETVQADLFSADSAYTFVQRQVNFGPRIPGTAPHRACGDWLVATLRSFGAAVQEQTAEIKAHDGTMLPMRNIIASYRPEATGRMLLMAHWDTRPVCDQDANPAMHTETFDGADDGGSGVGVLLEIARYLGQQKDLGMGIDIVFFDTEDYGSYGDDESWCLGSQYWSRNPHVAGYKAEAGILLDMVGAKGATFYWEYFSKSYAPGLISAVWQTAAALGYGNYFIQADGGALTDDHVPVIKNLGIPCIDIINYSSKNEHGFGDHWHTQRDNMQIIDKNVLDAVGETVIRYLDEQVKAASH
# Chain of HsQC (Q16769 29-361): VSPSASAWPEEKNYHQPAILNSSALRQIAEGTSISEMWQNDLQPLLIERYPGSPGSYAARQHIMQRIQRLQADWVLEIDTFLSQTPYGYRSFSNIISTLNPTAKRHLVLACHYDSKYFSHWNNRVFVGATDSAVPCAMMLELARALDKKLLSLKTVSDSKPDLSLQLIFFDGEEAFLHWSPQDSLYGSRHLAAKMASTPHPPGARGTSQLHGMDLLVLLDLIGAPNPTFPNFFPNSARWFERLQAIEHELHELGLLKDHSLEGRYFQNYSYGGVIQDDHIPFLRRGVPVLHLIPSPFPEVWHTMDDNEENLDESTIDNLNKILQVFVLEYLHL
structure (smiles),measurement,setting,value
"Clc1ccc(CNc2cnc3nc[nH]c3c2)cc1 [S-316, N-(4-chlorobenzyl)imidazo[4,5-b]pyridin-6-amine]",Ki,[1],655 ± 27 nM
same,MIC in words,[2]; P. gingivalis laboratory strain,submillimolar
same,MIC,"[2]; Porphyromonas gingivalis, ATCC33277, P. gingivalis ATCC 33277, 42 h",500 µM
same,MIC in words,[3]; P. gingivalis clinical isolate,submillimolar
same,MIC,"[3]; Porphyromonas gingivalis, P. gingivalis J374–1 clinical isolate, 42 h",500 µM
same,MIC in words,[4]; P. gingivalis clinical isolate,submillimolar
same,MIC,"[4]; Porphyromonas gingivalis, P. gingivalis M5-1-2 clinical isolate, 42 h",250 µM
same,MIC,"[5]; Fusobacterium nucleatum, ATCC25586, F. nucleatum ATCC 25586, 42 h",> 2000 µM
same,Growth attenuation,"[5]; Gram-negative F. nucleatum, no QC-like enzyme",did not result in growth attenuation
same,MIC in words,[6]; P. intermedia,submillimolar
same,MIC,"[6]; Prevotella intermedia, ATCC25611, P. intermedia ATCC 25611, 42 h",125 µM
same,Growth attenuation,"[7]; Gram-positive S. gordonii, no QC-like enzyme",did not result in growth attenuation
same,MIC,"[7]; Streptococcus gordonii, ATCC10558, S. gordonii ATCC 10558, 18 h",> 2000 µM
same,MIC in words,[8]; T. forsythia,submillimolar
same,MIC,"[8]; Tannerella forsythia, ATCC43037, T. forsythia ATCC 43037, 42 h",500 µM
same,"P. gingivalis growth inhibition, dependence on concentration",[9],dose-dependent; also recorded: concentration-dependent manner
same,"P. gingivalis growth inhibition, dependence on concentration",[10],dose-dependent; also recorded: concentration-dependent manner
same,Ki,[11],53 ± 1.1 nM
